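Briefly, cells in 96-well plates were exposed to five compound concentrations for 48 h, and endpoints were estimated by linear interpolation. GI50 marks 50% less growth. TGI marks complete inhibition of growth.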
Columns and labels:
Assay in all cases: NCI anticancer screen, dose series, 48 h
CAKI-1 renal = test system: CAKI-1 renal
MDA-MB-231 breast = test system: MDA-MB-231 breast
UO-31 renal = test system: UO-31 renal
UACC-257 melanoma = test system: UACC-257 melanoma
MCF7 breast = test system: MCF7 breast
M14 melanoma = test system: M14 melanoma
BT-549 breast = test system: BT-549 breast
ACHN renal = test system: ACHN renal
HCT-15 colon = test system: HCT-15 colon
TK-10 renal = test system: TK-10 renal
SNB-75 CNS = test system: SNB-75 CNS
SW-620 colon = test system: SW-620 colon
T-47D breast = test system: T-47D breast
SF-539 CNS = test system: SF-539 CNS
HCT-116 colon = test system: HCT-116 colon
SNB-19 CNS = test system: SNB-19 CNS
NCI-H23 lung = test system: NCI-H23 lung
NCI/ADR-RES ovarian = test system: NCI/ADR-RES ovarian
SR leukemia = test system: SR leukemia
KM12 colon = test system: KM12 colon
LOX IMVI melanoma = test system: LOX IMVI melanoma
K-562 leukemia = test system: K-562 leukemia
HCC-2998 colon = test system: HCC-2998 colon
SK-OV-3 ovarian = test system: SK-OV-3 ovarian
IGROV1 ovarian = test system: IGROV1 ovarian
SF-295 CNS = test system: SF-295 CNS
A549 NSCLC = test system: A549 NSCLC
CCRF-CEM leukemia = test system: CCRF-CEM leukemia
SK-MEL-2 melanoma = test system: SK-MEL-2 melanoma
OVCAR-8 ovarian = test system: OVCAR-8 ovarian
SN12C renal = test system: SN12C renal
HOP-92 NSCLC = test system: HOP-92 NSCLC
HT29 colon = test system: HT29 colon
NCI-H460 lung = test system: NCI-H460 lung
SK-MEL-28 melanoma = test system: SK-MEL-28 melanoma
UACC-62 melanoma = test system: UACC-62 melanoma
U251 CNS = test system: U251 CNS
OVCAR-4 ovarian = test system: OVCAR-4 ovarian
A498 renal = test system: A498 renal
OVCAR-5 ovarian = test system: OVCAR-5 ovarian
NCI-H226 lung = test system: NCI-H226 lung
HOP-62 NSCLC = test system: HOP-62 NSCLC
HS 578T breast = test system: HS 578T breast
RXF 393 renal = test system: RXF 393 renal
786-0 renal = test system: 786-0 renal
COLO 205 colon = test system: COLO 205 colon
DU-145 prostate = test system: DU-145 prostate
NCI-H522 lung = test system: NCI-H522 lung
HL-60(TB) leukemia = test system: HL-60(TB) leukemia
SF-268 CNS = test system: SF-268 CNS
SK-MEL-5 melanoma = test system: SK-MEL-5 melanoma
EKVX NSCLC = test system: EKVX NSCLC
PC-3 prostate = test system: PC-3 prostate
MALME-3M melanoma = test system: MALME-3M melanoma
OVCAR-3 ovarian = test system: OVCAR-3 ovarian
MDA-MB-435 = test system: MDA-MB-435

SMILES: O=C(c1cc(-c2cc3c(cc2C(=O)N2Cc4ccccc4C[C@H]2CN2CCOCC2)OCO3)n2c1CCCC2)N(c1ccccc1)c1ccc(O)cc1
- GI50 (CAKI-1 renal): 3.56 µM
- TGI (CAKI-1 renal): > 100 µM
- GI50 (MDA-MB-231 breast): 10.9 µM
- TGI (MDA-MB-231 breast): 53.3 µM
- GI50 (UO-31 renal): 4.28 µM
- TGI (UO-31 renal): > 100 µM
- GI50 (UACC-257 melanoma): 18.9 µM
- TGI (UACC-257 melanoma): > 100 µM
- GI50 (MCF7 breast): 3.52 µM
- TGI (MCF7 breast): > 100 µM
- GI50 (M14 melanoma): 18.1 µM
- TGI (M14 melanoma): > 100 µM
- GI50 (BT-549 breast): 36.4 µM
- TGI (BT-549 breast): > 100 µM
- GI50 (ACHN renal): 9.36 µM
- TGI (ACHN renal): > 100 µM
- GI50 (HCT-15 colon): 3.54 µM
- TGI (HCT-15 colon): > 100 µM
- GI50 (TK-10 renal): 27.8 µM
- TGI (TK-10 renal): > 100 µM
- GI50 (SNB-75 CNS): 3.61 µM
- TGI (SNB-75 CNS): > 100 µM
- GI50 (SW-620 colon): 17.3 µM
- TGI (SW-620 colon): > 100 µM
- GI50 (T-47D breast): 4.95 µM
- TGI (T-47D breast): > 100 µM
- GI50 (SF-539 CNS): 15.7 µM
- TGI (SF-539 CNS): > 100 µM
- GI50 (HCT-116 colon): 13.6 µM
- TGI (HCT-116 colon): > 100 µM
- GI50 (SNB-19 CNS): 7.13 µM
- TGI (SNB-19 CNS): > 100 µM
- GI50 (NCI-H23 lung): 34.8 µM
- TGI (NCI-H23 lung): > 100 µM
- GI50 (NCI/ADR-RES ovarian): 6.5 µM
- TGI (NCI/ADR-RES ovarian): > 100 µM
- GI50 (SR leukemia): 3.09 µM
- TGI (SR leukemia): > 100 µM
- GI50 (KM12 colon): 12.9 µM
- TGI (KM12 colon): > 100 µM
- GI50 (LOX IMVI melanoma): 7.09 µM
- TGI (LOX IMVI melanoma): > 100 µM
- GI50 (K-562 leukemia): 3.88 µM
- TGI (K-562 leukemia): > 100 µM
- GI50 (HCC-2998 colon): 4.93 µM
- TGI (HCC-2998 colon): 61.3 µM
- GI50 (SK-OV-3 ovarian): 12.7 µM
- TGI (SK-OV-3 ovarian): > 100 µM
- GI50 (IGROV1 ovarian): 5.97 µM
- TGI (IGROV1 ovarian): > 100 µM
- GI50 (SF-295 CNS): 5.14 µM
- TGI (SF-295 CNS): > 100 µM
- GI50 (A549 NSCLC): 5.15 µM
- TGI (A549 NSCLC): > 100 µM
- GI50 (CCRF-CEM leukemia): 3.34 µM
- TGI (CCRF-CEM leukemia): > 100 µM
- GI50 (SK-MEL-2 melanoma): 10.2 µM
- TGI (SK-MEL-2 melanoma): 54.4 µM
- GI50 (OVCAR-8 ovarian): 10.6 µM
- TGI (OVCAR-8 ovarian): > 100 µM
- GI50 (SN12C renal): 8.6 µM
- TGI (SN12C renal): > 100 µM
- GI50 (HOP-92 NSCLC): 2.72 µM
- TGI (HOP-92 NSCLC): 15 µM
- GI50 (HT29 colon): 5.14 µM
- TGI (HT29 colon): > 100 µM
- GI50 (NCI-H460 lung): 7.09 µM
- TGI (NCI-H460 lung): > 100 µM
- GI50 (SK-MEL-28 melanoma): 11.4 µM
- TGI (SK-MEL-28 melanoma): > 100 µM
- GI50 (UACC-62 melanoma): 8.62 µM
- TGI (UACC-62 melanoma): > 100 µM
- GI50 (U251 CNS): 6.99 µM
- TGI (U251 CNS): > 100 µM
- GI50 (OVCAR-4 ovarian): 8.35 µM
- TGI (OVCAR-4 ovarian): > 100 µM
- GI50 (A498 renal): 2.71 µM
- TGI (A498 renal): 15.3 µM
- GI50 (OVCAR-5 ovarian): 5.87 µM
- TGI (OVCAR-5 ovarian): > 100 µM
- GI50 (NCI-H226 lung): 10.1 µM
- TGI (NCI-H226 lung): 56 µM
- GI50 (HOP-62 NSCLC): 64.4 µM
- TGI (HOP-62 NSCLC): > 100 µM
- GI50 (HS 578T breast): 6.05 µM
- TGI (HS 578T breast): > 100 µM
- GI50 (RXF 393 renal): 2.77 µM
- TGI (RXF 393 renal): 17.5 µM
- GI50 (786-0 renal): 45.9 µM
- TGI (786-0 renal): > 100 µM
- GI50 (COLO 205 colon): 6.71 µM
- TGI (COLO 205 colon): > 100 µM
- GI50 (DU-145 prostate): 18 µM
- TGI (DU-145 prostate): > 100 µM
- GI50 (NCI-H522 lung): 22.9 µM
- TGI (NCI-H522 lung): > 100 µM
- GI50 (HL-60(TB) leukemia): 2.62 µM
- TGI (HL-60(TB) leukemia): 7.16 µM
- GI50 (SF-268 CNS): 7.65 µM
- TGI (SF-268 CNS): > 100 µM
- GI50 (SK-MEL-5 melanoma): 3.78 µM
- TGI (SK-MEL-5 melanoma): 18.6 µM
- GI50 (EKVX NSCLC): 5.31 µM
- TGI (EKVX NSCLC): > 100 µM
- GI50 (PC-3 prostate): 2.99 µM
- TGI (PC-3 prostate): > 100 µM
- GI50 (MALME-3M melanoma): 15.6 µM
- TGI (MALME-3M melanoma): > 100 µM
- GI50 (OVCAR-3 ovarian): 5.55 µM
- TGI (OVCAR-3 ovarian): > 100 µM
- GI50 (MDA-MB-435): 8.55 µM
- TGI (MDA-MB-435): 98.9 µM
